Several values for one entry are separate records, joined by “and”; a condition that tells them apart may be missing. Equal entries are not always repeated. Marks after values point to notes of the source that are not given here.
Experiments:
[1] = molecular target: T1, porcine pancreatic α-amylase (Sus scrofa, UniProt P00690); assay: Pancreatic α-amylase inhibition assay (I% and IC50); type: biochemical; details: for IC50: mean ± S.E.M., n = 3, starch substrate, 37 °C, pH 7.0
T1 construct: purchased Sigma-Aldrich
T1 sequence (P00690 16-511): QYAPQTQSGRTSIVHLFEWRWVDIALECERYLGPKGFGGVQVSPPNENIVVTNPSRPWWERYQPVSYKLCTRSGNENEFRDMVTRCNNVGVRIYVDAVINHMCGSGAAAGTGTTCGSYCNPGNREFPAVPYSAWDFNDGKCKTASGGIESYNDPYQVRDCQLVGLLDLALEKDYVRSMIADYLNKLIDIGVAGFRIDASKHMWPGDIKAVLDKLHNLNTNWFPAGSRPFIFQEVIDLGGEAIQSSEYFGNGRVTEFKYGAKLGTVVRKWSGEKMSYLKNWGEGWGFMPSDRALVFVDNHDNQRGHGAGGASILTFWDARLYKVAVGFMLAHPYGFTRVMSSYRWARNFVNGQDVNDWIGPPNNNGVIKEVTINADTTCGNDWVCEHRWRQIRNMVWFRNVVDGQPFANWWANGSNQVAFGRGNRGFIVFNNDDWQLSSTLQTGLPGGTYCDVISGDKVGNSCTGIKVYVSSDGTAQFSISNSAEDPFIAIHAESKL
Protocol: (§1) The pancreatic α-amylase inhibition assay was carried out according to Freitas et al. with some modifications. The porcine pancreatic α-amylase (1 mg/mL) was incubated in 50 mM Tris-HCl buffer (pH 7.0) containing 10 mM CaCl2 and 1% starch. […] Afterward, microplates were pre-incubated for 10 min in a water bath at 37 °C. […] The reaction was stopped using an ice bath. All reactions were carried out in triplicate.

[2] = molecular target: T1, porcine pancreatic α-amylase; assay: Kinetic parameters and Lineweaver-Burk analysis, pancreatic α-amylase; type: biochemical; details: for Vmax (pancreatic α-amylase in presence of inhibitor) / Slope (Lineweaver-Burk, pancreatic α-amylase): inhibitor concentration: acarbose 387, PPC80 730, PPC82 795, PPC84 870, PPC89 675, PPC101 532 µM; for Vmax (pancreatic α-amylase in presence of inhibitor): no inhibitor Vmax 100.70 ± 0.34; for Slope (Lineweaver-Burk, pancreatic α-amylase): no inhibitor slope 0.59; for Inhibition mechanism on pancreatic α-amylase: from Km, Vmax and Lineweaver-Burk plots
Protocol: as §1
(§2) Kinetic parameters were determined using the same experimental conditions as described above for each enzyme. […] The enzyme concentrations were maintained as described above. […] The absorbance values were converted into product concentration (µmol/L) using standard curves of glucose (α-amylase) and p-nitrophenol (pancreatic lipase and α-glucosidase). The value of the initial velocity (v0) of enzymatic reactions was estimated to create the “v0 versus substrate concentration” graph. Kinetic constants (Km and Vmax) and slope were calculated, and the inhibition model was verified using Lineweaver–Burk plots.

α-glucosidase [3] = assay: Kinetic parameters and Lineweaver-Burk analysis, α-glucosidase; type: biochemical; details: for Inhibition mechanism on α-glucosidase: from Km, Vmax and Lineweaver-Burk plots; for Vmax (α-glucosidase in presence of inhibitor) / Slope (Lineweaver-Burk, α-glucosidase): inhibitor concentration: acarbose 387, PPC84 870, PPC89 675, PPC101 532 µM; for Vmax (α-glucosidase in presence of inhibitor): no inhibitor Vmax 62.42 ± 1.14; for Slope (Lineweaver-Burk, α-glucosidase): no inhibitor slope 2.93
Protocol: [20] with some modifications. […] The reaction was stopped in an ice bath. All enzyme reactions were carried out in triplicate. […] Kinetic parameters were determined using the same experimental conditions as described above for each enzyme. […] The enzyme concentrations were maintained as described above. […] The absorbance values were converted into product concentration (μmol/L) using standard curves of glucose (α-amylase) and p-nitrophenol (pancreatic lipase and α-glucosidase). The value of the initial velocity (v0) of enzymatic reactions was estimated to create the “v0 versus substrate concentration” graph. Kinetic constants (Km and Vmax) and slope were calculated, and the inhibition model was verified using Lineweaver-Burk plots.

[4] = molecular target: T2, porcine pancreatic lipase (Sus scrofa, UniProt P00591); assay: Pancreatic lipase inhibition assay (I% and IC50); type: biochemical; details: for IC50: mean ± S.E.M., n = 3, substrate p-nitrophenol palmitate, 37 °C, pH 8.0; for Inhibitory action on pancreatic lipase (in words): tested concentration range
T2 construct: purchased Sigma-Aldrich
T2 sequence (P00591 1-450): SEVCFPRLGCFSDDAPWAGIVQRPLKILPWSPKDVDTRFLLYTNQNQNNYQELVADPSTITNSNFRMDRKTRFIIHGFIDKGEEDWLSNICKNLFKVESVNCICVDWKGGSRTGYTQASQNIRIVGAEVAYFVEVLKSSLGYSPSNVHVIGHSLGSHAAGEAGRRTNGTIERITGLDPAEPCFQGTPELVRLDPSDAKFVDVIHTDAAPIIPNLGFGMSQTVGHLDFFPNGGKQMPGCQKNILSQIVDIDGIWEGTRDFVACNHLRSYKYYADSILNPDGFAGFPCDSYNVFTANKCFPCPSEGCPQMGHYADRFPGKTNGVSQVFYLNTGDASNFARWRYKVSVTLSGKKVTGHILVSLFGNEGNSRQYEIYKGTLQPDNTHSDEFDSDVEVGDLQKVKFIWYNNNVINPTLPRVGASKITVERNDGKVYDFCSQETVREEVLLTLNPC
Protocol: (§3) The pancreatic lipase inhibition assay was performed according to Santos et al. with some modifications. The porcine pancreatic lipase (10 g/L) was incubated in 50 mmol/L Tris-HCl buffer (pH 8.0) containing 10 mM CaCl2 and 25 mM NaCl. The p-nitrophenol palmitate substrate (8 mM) was dissolved in 0.5% w/v Triton-X 100. […] All reactions were carried out in triplicate.

[5] = molecular target: T2, porcine pancreatic lipase; assay: Kinetic parameters and Lineweaver-Burk analysis, pancreatic lipase; type: biochemical; details: for Inhibition mechanism on pancreatic lipase: from Km, Vmax and Lineweaver-Burk plots; for Vmax (pancreatic lipase in presence of inhibitor) / Slope (Lineweaver-Burk, pancreatic lipase): inhibitor concentration: orlistat 101 µM, PPC80 146 µM, PPC82 159 µM, PPC84 174 µM; for Vmax (pancreatic lipase in presence of inhibitor): no inhibitor Vmax 68.65 ± 0.41; for Slope (Lineweaver-Burk, pancreatic lipase): no inhibitor slope 2.77
Protocol: as §3, §2

α-glucosidase [6] = assay: α-Glucosidase inhibition assay (I% and IC50); details: for Inhibitory action against α-glucosidase (in words): tested concentration range
[7] = molecular target: T2, porcine pancreatic lipase; design: method as in PMID 12771334; details: 100 mg/mL; cited from earlier work

Row | Compound | Vmax (pancreatic α-amylase in presence of inhibitor) [2] | Slope (Lineweaver-Burk, pancreatic α-amylase) [2] [min⁻¹] | Inhibition mechanism on α-glucosidase (α-glucosidase [3]) | Vmax (α-glucosidase in presence of inhibitor) (α-glucosidase [3]) | Slope (Lineweaver-Burk, α-glucosidase) (α-glucosidase [3]) [min⁻¹] | IC50 [4] [µM] | IC50 [1] [µM] | Inhibition mechanism on pancreatic lipase [5] | Vmax (pancreatic lipase in presence of inhibitor) [5] | Slope (Lineweaver-Burk, pancreatic lipase) [5] [min⁻¹] | Inhibition mechanism on pancreatic α-amylase [2] | also measured
1 | C[C@H]1O[C@H](O[C@H]2[C@H](O)[C@@H](O)[C@@H](O[C@H]3[C@H](O)[C@@H](O)C(O)O[C@@H]3CO)O[C@@H]2CO)[C@H](O)[C@@H](O)[C@@H]1N[C@H]1C=C(CO)[C@@H](O)[C@H](O)[C@H]1O (some centres unmarked) [Acarbose, acarbose, reference compound] | 100.30 ± 0.89 ^a µM/min | 0.66 |  |  |  |  |  |  |  |  |  | inhibition at 620 µM ([1]; 620 µM): ~86%
2 | CC[C@H](C)[C@H](NC(=O)OC(C)(C)C)C(=O)NCCCN [PPC84] | 94.35 ± 0.51 µM/min | 0.80 | competitive inhibitors | 62.90 ± 0.60 µM/min and 62.90 ± 0.60 ^a µM/min | 4.29 | 1020 ± 20.3 | 493 ± 11 | mixed or non-competitive inhibition mechanism | 62.76 ± 0.3 µM/min and 62.76 ± 0.35 µM/min | 3.19 | non-competitive or mixed inhibition mechanism | inhibition at 1392 µM ([4]; 1392 µM, read-out: Inhibitory effect on pancreatic lipase activity): ~62%; inhibition at 870 µM ([1]; 870 µM): ~74%; Inhibition of α-glucosidase (α-glucosidase [6]; 435 µM): ~66%
3 | CCCCCCCCNC(=O)[C@@H](NC(=O)OC(C)(C)C)[C@@H](C)CC [PPC80] | 91.75 ± 0.48 µM/min | 0.89 |  |  |  | 475 ± 8.25 | 276 ± 5.21 | competitive mechanism | 68.82 ± 0.57 µM/min and 68.82 ± 0.57 ^a µM/min | 4.65 | non-competitive or mixed inhibition mechanism | inhibition at 584 µM ([4]; 584 µM, read-out: Inhibitory effect on pancreatic lipase activity): ~65%; inhibition at 730 µM ([1]; 730 µM): ~93%; Inhibitory action against α-glucosidase (in words) (α-glucosidase [6]): did not show inhibitory action
4 | CCCCCCNC(=O)[C@@H](NC(=O)OC(C)(C)C)[C@@H](C)CC [PPC82] | 99.70 ± 1.20 ^a µM/min | 0.72 |  |  |  | 167 ± 6.25 | 519 ± 20 | competitive mechanism | 69.13 ± 0.57 µM/min and 69.13 ± 0.57 ^a µM/min | 5.79 | competitive-type inhibition mechanism | inhibition at 477 µM ([4]; 477 µM, read-out: Inhibitory effect on pancreatic lipase activity): ~86%; inhibition at 1590 µM ([1]; 1590 µM): ~94%; Inhibitory action against α-glucosidase (in words) (α-glucosidase [6]): did not show inhibitory action
5 | CCCCCCCCCCC[C@@H](C[C@@H]1OC(=O)[C@H]1CCCCCC)OC(=O)[C@H](CC(C)C)NC=O [Orlistat, orlistat, reference compound] |  |  |  |  |  |  |  |  | 68.34 ± 0.40 µM/min and 68.34 ± 0.40 ^a µM/min | 4.10 |  | inhibition at 807 µM ([4]; 807 µM, read-out: Inhibitory effect on pancreatic lipase activity): 60%
6 | CCCCCCCCCCCCNCCCCNC(=O)[C@@H](NC(=O)OC(C)(C)C)[C@@H](C)CC [PPC101] | 100.00 ± 1.55 ^a µM/min | 0.70 | competitive inhibitors | 63.09 ± 1.45 µM/min and 63.09 ± 1.45 ^a µM/min | 4.94 |  | 162 ± 1.73 |  |  |  | competitive-type inhibition mechanism | Inhibitory action on pancreatic lipase (in words) [4]: did not show inhibitory action; inhibition at 532 µM ([1]; 532 µM): ~86%; Inhibition of α-glucosidase (α-glucosidase [6]; 67 µM): ~64%; IC50 (α-glucosidase [6]; read-out: IC50 α-Glucosidase, mean ± S.E.M., n = 3, substrate p-nitrophenyl-α-D-glucopyranoside, 37 °C, pH 7.0): 51 ± 1.73 µM
7 | Polylysine |  |  |  |  |  |  |  |  |  |  |  | Inhibition of porcine pancreatic lipase activity [7]: 80%
8 | CCCCCCCCCCNC(=O)[C@@H](NC(=O)OC(C)(C)C)[C@@H](C)CC [PPC89] | 99.73 ± 1.77 ^a µM/min | 0.76 | competitive inhibitors | 62.30 ± 1.33 µM/min and 62.30 ± 1.33 ^a µM/min | 4.11 |  | 171 ± 13.6 |  |  |  | competitive-type inhibition mechanism | Inhibitory action on pancreatic lipase (in words) [4]: did not show inhibitory action; Inhibitory effect on pancreatic α-amylase (in words) ([1]; 405 µM, compared with acarbose 620 µM): same inhibitory effect as acarbose; inhibition at 675 µM ([1]; 675 µM): ~90%; Inhibition of α-glucosidase (α-glucosidase [6]; 674 µM): ~78%

Source: PMC10296036, “Inhibitory Potential of Synthetic Amino Acid Derivatives against Digestive Enzymes as Promising Hypoglycemic and Anti-Obesity Agents” (Biomolecules, 2023)
